Molecular target: cofilin (Homo sapiens, UniProt P23528)
Assay: Cofilin inhibition by the compound still protected on one side (no method given)
Conditions: one side of the Formula I structure still protected (TBS)

cofilin, sequence (P23528 whole entry): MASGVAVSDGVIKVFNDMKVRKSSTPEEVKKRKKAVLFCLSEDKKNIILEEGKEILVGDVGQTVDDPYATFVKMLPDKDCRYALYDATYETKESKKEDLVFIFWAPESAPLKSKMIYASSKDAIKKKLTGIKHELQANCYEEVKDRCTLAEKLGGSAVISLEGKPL

`CC(C)(C)c1ccc(O)c(CN(Cc2cc(C(C)(C)C)ccc2O[Si](C)(C)C(C)(C)C)C2CCC(NC(N)=O)CC2)c1` (stereo not shown) [SZ-2] was tested, and the cofilin inhibition was “still works to inhibit cofilin”.
